Test results published in patent EP4685153A1 (priority 2023, dated 2024).
Residues, ends and D or L forms follow the SMILES beside them. *: point of attachment. Succinyl(4-O-cholesteryl) = CC(C)CCC[C@@H](C)[C@H]1CC[C@H]2[C@@H]3CC=C4C[C@@H](OC(=O)CCC(=O)*)CC[C@]4(C)[C@H]3CC[C@]12C

Assays:
VSV = details: 48 h
[1] = tested on: HIV-1 strain SG3.1 living virus; details: TZM-bl cells, versus T20
MARV = details: 48 h
MERS-CoV = details: 48 h
[2] = tested on: protease K, trypsin, or α-chymotrypsin
[3] = In vitro cytotoxicity (CCK-8), TZM-bl cells; type: cell-based; details: human, CCK-8, 48 hours
Procedure: (§1) The in vitro cytotoxicity was detected by using a CCK-8 cell proliferation/toxicity assay kit (manufacturer: Abbkine, Cat. No.: KTC 011001). […] By using GraphPad Prism software, the inhibition rate curve was fitted and the half-maximal cytotoxic concentration (CC50) of the drug was calculated.

[4] = In vitro cytotoxicity (CCK-8), Huh-7 cells; type: cell-based; details: human, CCK-8, 48 hours
Procedure: as §1

[5] = tested on: replicative HIV-1 strain JR-CSF
[6] = tested on: representative pandemic HIV-1 strain pseudoviruses
RABV = details: 48 h
[7] = In vitro cytotoxicity (CCK-8), MDCK cells; type: cell-based; details: dog, CCK-8, 48 hours
Procedure: as §1

[8] = In vitro cytotoxicity (CCK-8), 293T/ACE2 cells; type: cell-based; details: human, CCK-8, 48 hours
Procedure: as §1

[9] = In vitro cytotoxicity (CCK-8), Hep-2 cells; type: cell-based; details: human, CCK-8, 48 hours
Procedure: as §1

[10] = tested on: T20-resistant mutant strains (HIV-1 strain NL4-3)
[11] = In vitro cytotoxicity (CCK-8), HEK293T cells; type: cell-based; details: human, CCK-8, 48 hours
Procedure: as §1

[12] = Circular dichroism of lipopeptide alone; type: physicochemical; details: CD, 10 µM in PBS pH 7.2
N44 = N44 (Human immunodeficiency virus type 1 group M subtype B, UniProt P04578); test: Circular dichroism of lipopeptide complex with target sequence N44; details: CD
Sequence of N44 (P04578 538-581): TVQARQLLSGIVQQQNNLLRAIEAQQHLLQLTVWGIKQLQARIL

[13] = Temperature stability experiment (antiviral activity after storage); details: 300 µM aqueous solution, room temperature or 37 °C, various time periods; NL4-3 pseudovirus, TZM-bl cells
[14] = In vitro cytotoxicity (CCK-8), MT-4 cells; type: cell-based; details: human, CCK-8, 48 hours
Procedure: as §1

[15] = Human serum stability experiment (antiviral activity after incubation); details: 20% human serum, 37 °C, 0 to 240 minutes; NL4-3 pseudovirus, TZM-bl cells
EBOV = details: 48 h
[16] = tested on: HIV-1 strain NL4-3 pseudovirus; details: strain NL4-3 pseudovirus
[17] = tested on: HIV-1 strain JRFL pseudovirus; details: strain JRFL pseudovirus
H7N9 = details: 48 h
[18] = tested on: HIV-1 envelope protein (Env); test: Env-mediated cell-cell fusion inhibition (DSP reporter system)
seven test cells = test: In vitro cytotoxicity (CCK-8), average over seven test cells; type: cell-based; details: CC50/IC50
Procedure: as §1

SMILES: CC[C@H](C)[C@H](NC(=O)[C@H](CCCCN)NC(=O)[C@H](CCCCN)NC(=O)[C@H](CCC(=O)O)NC(=O)[C@H](CC(C)C)NC(=O)[C@H](CCC(=O)O)NC(=O)[C@H](CCC(=O)O)NC(=O)[C@H](CC(C)C)NC(=O)[C@H](CCC(=O)O)NC(=O)[C@H](CCCCN)NC(=O)[C@H](CCC(=O)O)NC(=O)[C@H](Cc1ccc(O)cc1)NC(=O)[C@H](CCC(=O)O)NC(=O)[C@H](CCC(=O)O)NC(=O)[C@H](Cc1ccc(O)cc1)NC(=O)[C@H](CCC(=O)O)NC(C)=O)C(=O)N[C@@H](CCC(=O)O)C(=O)N[C@@H](CCC(=O)O)C(=O)N[C@@H](CC(C)C)C(=O)N[C@@H](CC(C)C)C(=O)N[C@@H](CCCCN)C(=O)N[C@@H](CCCCN)C(=O)N[C@@H](C)C(=O)N[C@@H](CCC(=O)O)C(=O)N[C@@H](CCC(=O)O)C(=O)N[C@@H](CCC(N)=O)C(=O)N[C@@H](CCC(N)=O)C(=O)N[C@@H](CCCCN)C(=O)N[C@@H](CCCCN)C(=O)N[C@@H](CC(N)=O)C(=O)N[C@@H](CCC(=O)O)C(=O)N[C@@H](C)C(=O)N[C@@H](C)C(=O)N[C@@H](C)C(=O)N[C@@H](CCCCN)C(=O)N[C@@H](CCCCNC(=O)CCC(=O)O[C@H]1CC[C@@]2(C)C(=CC[C@H]3[C@@H]4CC[C@H]([C@H](C)CCCC(C)C)[C@@]4(C)CC[C@@H]32)C1)C(N)=O [LP-127] (Ac-EYEEYEKELEELEKKIEELLKKAEEQQKKNEAAAKK(Succinyl(4-O-cholesteryl))-NH2)
- IC50 (VSV): 1510 nM
- inhibitory activity higher than that of the T20, SG3.1 [1]: 1427 folds
- IC50 (MARV): 144 nM
- IC50 (MERS-CoV): 383 nM
- change in antiviral activity after treatment with three proteases [2]: no significant change
- CC50 at 48 h [3]: 10200 nM
- CC50 at 48 h [4]: 31300 nM
- inhibitory activity higher than the T20, JR-CSF ([5]; TZM-bl cells, versus T20): 539 folds
- IC50 ([5]; replicative strain JR-CSF, 48 h): 0.0104 nM
- IC50 ([6]; representative pandemic strain pseudoviruses, 48 h): 0.00489 nM
- inhibitory activity against 12 pseudoviruses higher than that of the T20 ([6]; versus T20): 4101 folds
- IC50 (RABV): 1730 nM
- CC50 at 48 h [7]: 12900 nM
- CC50 at 48 h [8]: 14400 nM
- CC50 at 48 h [9]: 16500 nM
- IC50 ([10]; T20-resistant mutant strains ( strain NL4-3, 48 h)): 0.00702 nM
- inhibitory activity against 12 drug-resistant mutant strains higher than that of the LP-98 ([10]; versus LP-98): 379 folds
- CC50 at 48 h [11]: 9070 nM
- α-helix content, lipopeptide alone [12]: 57%
- Tm value of the mixture with N44 (N44; [θ]222, 20-98 °C at 2 °C/min): 92 °C
- α-helix content of the mixture with N44 (N44; lipopeptide and N44 each 10 µM in PBS pH 7.2): 68%
- change in antiviral activity after treatment at different temperatures [13]: no significant change
- CC50 at 48 h [14]: 15400 nM
- change in antiviral activity after treatment with human serum [15]: no significant change
- IC50 (EBOV): 61.7 nM
- IC50 [16]: 0.00501 nM
- IC50 [17]: 0.00563 nM
- IC50 (H7N9): 415 nM
- IC50 ([18]; read-out: average IC50 value, membrane fusion of 12 viruses, average over Env of 12 representative pandemic HIV-1 strains): 0.00497 nM
- inhibitory activity against membrane fusions of 12 viruses higher than that of the T20 ([18]; versus T20): 2256 folds
- therapeutic selective index (SI) (seven test cells): very high
